# In patent US12649745B2, “Amino-pyrimidine cyclo-amides” (Hoffmann-La Roche Inc., priority 2020, dated 2026):
# Biological target: T1, human Autotaxin (ATX) (Homo sapiens, UniProt Q13822)
# T1 construct: generate a full length human ENPP2 ORF with or without a 3′-6×His tag; 6xHis (C); made in house; host or cells: FreeStyle 293-F cells (transient transfection), purified from culture supernatant
# Assay: Human ATX enzyme inhibition assay (LPC substrate, choline oxidase/HRP/Amplex Red coupled format)
# Type: biochemical
# Conditions: recombinant hATX 1 nM, 18:1 LPC 30 μM, fluorescence at 90 mins minus 5 mins
# Experimental: Human ATX Enzyme Inhibition Assay
# To identify inhibitors of the human Autotaxin (ATX) enzyme an in-vitro biochemical profiling assay has been developed using lysophosphatidylcholine (LPC) as substrate and recombinant enzyme. ATX activity is assayed via a coupled enzyme format where choline produced from LPC hydrolysis is converted to hydrogen peroxide by choline oxidase (CO). Hydrogen peroxide is in turn used as a co-substrate by horseradish peroxidase (HRP) to oxidise Amplex Red® and generate the red-fluorescent product, Resorufin.
# 50 mM Tris-HCl (pH 8.0); 120 mM NaCl; 20 mM CaCl2; 5 mM KCl; 1 mM MgCl2; 0.01% Triton X-100, sterile-filtered and stored at 4° C.
# 50 mM Tris-HCl (pH 8.0); 150 mM NaCl
# human Autotaxin (hATX): 0.97 mg/ml (9.718 μM) Molecular weight 99817. Working solution of 1.5 μM used in this assay.
# 100 mM 18:1 LPC dissolved in reagent dilution-buffer.
# 500 U/ml Choline Oxidase in reagent dilution buffer.
# 2540 U/ml Horseradish Peroxidase, in reagent dilution buffer (10.95 mg/ml).
# 20 mM Amplex Red (10-Acetyl-3,7-dihydroxy-phenoxazin) in DMSO.
# Black, 384-well plate, black with clear bottom, non-treated surface.
# Test compounds are received pre-diluted in DMSO as an 11-point concentration-response (0.5 mM highest concentration; 1 in 3.162 dilution). Test compounds are pre-diluted 1:1 (10 μL compound+10 μL assay buffer) in a 96-well conical bottomed plate prior to use.
# ATX is diluted to 2.2 nM in assay buffer. Choline oxidase and horseradish peroxidase are diluted to 7.3 U/ml and 14.7 U/ml, respectively. 18:1 LPC and Amplex Red® are diluted to 110 μM and 183.3 μM, respectively (solution protected from light). 2.2 μL of compound pre-dilution or 50% DMSO is added to the reaction plate followed by 25 μL of ATX or assay buffer (negative control). Assay plate is mixed and incubated at room temperature for 10 mins. 15 μL of choline oxidase/horseradish peroxidase is then added. To initiate the reaction 15 μL of LPC 18:1/Amplex Red is added. Assay plate is mixed and incubated at room temperature in the dark. Fluorescence is measured at 5 mins (for background subtraction) and 90 mins.
# Final Assay Concentrations:
# Horse Radish Peroxidase: 4 U/ml
# Fluorescence at 5-minutes is subtracted from the 90-minute end point data and normalized with respect to the positive control. IC50 values are calculated.
# Results in the enzymatic ATX inhibition assay are provided for compounds of formula (I).
row,IC50,SMILES
1,6 nM,"N#Cc1cc(Cl)cc2c1C[C@@H](Nc1ncc3c(n1)CN(C1CCOC1)C3=O)C2 (mixture of isomers) [Example 11, (S,S) and (S,R)-6-chloro-2-((5-oxo-6-(tetrahydrofuran-3-yl)-6,7-dihydro-5H-pyrrolo[3,4-d]pyrimidin-2-yl)amino)-2,3-dihydro-1H-indene-4-carbonitrile]"
2,4 nM,"N#Cc1cc(Cl)cc2c1C[C@@H](Nc1ncc3c(n1)CCN(C1CCOC1)C3=O)C2 (mixture of isomers) [Example 32, (S,S) and (S,R)-6-chloro-2-((5-oxo-6-(tetrahydrofuran-3-yl)-5,6,7,8-tetrahydropyrido[4,3-d]pyrimidin-2-yl)amino)-2,3-dihydro-1H-indene-4-carbonitrile]"
3,150 nM,"O=C1c2cnc(NC3Cc4ccc(Cl)cc4C3)nc2CN1C1COC1 (centres unmarked) [Example 1, 2-((5-chloro-2,3-dihydro-1H-inden-2-yl)amino)-6-(oxetan-3-yl)-6,7-dihydro-5H-pyrrolo[3,4-d]pyrimidin-5-one]"
4,183 nM,"CC1(N2Cc3nc(NC4Cc5ccc(Cl)cc5C4)ncc3C2=O)COC1 (centres unmarked) [Example 2, 2-((5-chloro-2,3-dihydro-1H-inden-2-yl)amino)-6-(3-methyloxetan-3-yl)-6,7-dihydro-5H-pyrrolo[3,4-d]pyrimidin-5-one]"
5,5 nM,"CC1(N2Cc3nc(N[C@H]4Cc5cc(Cl)cc(C#N)c5C4)ncc3C2=O)COC1 [Example 3, (S)-6-chloro-2-((6-(3-methyloxetan-3-yl)-5-oxo-6,7-dihydro-5H-pyrrolo[3,4-d]pyrimidin-2-yl)amino)-2,3-dihydro-1H-indene-4-carbonitrile]"
6,42 nM,"O=C1c2cnc(NC3Cc4ccc(Cl)cc4C3)nc2CN1C1CC2(C1)CC(F)(F)C2 (centres unmarked) [Example 4, 2-((5-chloro-2,3-dihydro-1H-inden-2-yl)amino)-6-(6,6-difluorospiro[3.3]heptan-2-yl)-6,7-dihydro-5H-pyrrolo[3,4-d]pyrimidin-5-one]"
7,49 nM,"O=C1c2cnc(NC3Cc4ccc(Cl)cc4C3)nc2CN1C1CC(F)(F)C1 (centres unmarked) [Example 5, 2-((5-chloro-2,3-dihydro-1H-inden-2-yl)amino)-6-(3,3-difluorocyclobutyl)-6,7-dihydro-5H-pyrrolo[3,4-d]pyrimidin-5-one]"
8,4 nM,"CC1(N2Cc3nc(N[C@H]4Cc5cc(Cl)cc(C#N)c5C4)ncc3C2=O)CC(F)(F)C1 [Example 6, (S)-6-chloro-2-((6-(3,3-difluoro-1-methylcyclobutyl)-5-oxo-6,7-dihydro-5H-pyrrolo[3,4-d]pyrimidin-2-yl)amino)-2,3-dihydro-1H-indene-4-carbonitrile]"
9,3 nM,"N#Cc1cc(Cl)cc2c1C[C@@H](Nc1ncc3c(n1)CN(C1CC4(C1)CC(F)(F)C4)C3=O)C2 [Example 7, (S)-6-chloro-2-((6-(6,6-difluorospiro[3.3]heptan-2-yl)-5-oxo-6,7-dihydro-5H-pyrrolo[3,4-d]pyrimidin-2-yl)amino)-2,3-dihydro-1H-indene-4-carbonitrile]"
10,3 nM,"N#Cc1cc(Cl)cc2c1C[C@@H](Nc1ncc3c(n1)CN(C1CC(F)(F)C1)C3=O)C2 [Example 8, (S)-6-chloro-2-((6-(3,3-difluorocyclobutyl)-5-oxo-6,7-dihydro-5H-pyrrolo[3,4-d]pyrimidin-2-yl)amino)-2,3-dihydro-1H-indene-4-carbonitrile]"
11,5 nM,"N#Cc1cc(Cl)cc2c1C[C@@H](Nc1ncc3c(n1)CN(C1CCOCC1)C3=O)C2 [Example 9, (S)-6-chloro-2-((5-oxo-6-(tetrahydro-2H-pyran-4-yl)-6,7-dihydro-5H-pyrrolo[3,4-d]pyrimidin-2-yl)amino)-2,3-dihydro-1H-indene-4-carbonitrile]"
12,2 nM,"N#Cc1cc(Cl)cc2c1C[C@@H](Nc1ncc3c(n1)CN(CC(F)(F)F)C3=O)C2 [Example 10, (S)-6-chloro-2-((5-oxo-6-(2,2,2-trifluoroethyl)-6,7-dihydro-5H-pyrrolo[3,4-d]pyrimidin-2-yl)amino)-2,3-dihydro-1H-indene-4-carbonitrile]"
13,3 nM,"CC(C)N1Cc2nc(N[C@H]3Cc4cc(Cl)cc(C#N)c4C3)ncc2C1=O [Example 12, (S)-6-chloro-2-((6-isopropyl-5-oxo-6,7-dihydro-5H-pyrrolo[3,4-d]pyrimidin-2-yl)amino)-2,3-dihydro-1H-indene-4-carbonitrile]"
14,2 nM,"N#Cc1cc(Cl)cc2c1C[C@@H](Nc1ncc3c(n1)CN(C1CC1)C3=O)C2 [Example 13, (S)-6-chloro-2-((6-cyclopropyl-5-oxo-6,7-dihydro-5H-pyrrolo[3,4-d]pyrimidin-2-yl)amino)-2,3-dihydro-1H-indene-4-carbonitrile]"
15,3 nM,"N#Cc1cc(Cl)cc2c1C[C@@H](Nc1ncc3c(n1)CN(CC1COC1)C3=O)C2 [Example 14, (S)-6-chloro-2-((6-(oxetan-3-ylmethyl)-5-oxo-6,7-dihydro-5H-pyrrolo[3,4-d]pyrimidin-2-yl)amino)-2,3-dihydro-1H-indene-4-carbonitrile]"
16,2 nM,"CC1(N2Cc3nc(N[C@H]4Cc5cc(Cl)cc(C#N)c5C4)ncc3C2=O)CC1 [Example 15, (S)-6-chloro-2-((6-(1-methylcyclopropyl)-5-oxo-6,7-dihydro-5H-pyrrolo[3,4-d]pyrimidin-2-yl)amino)-2,3-dihydro-1H-indene-4-carbonitrile]"
17,4 nM,"N#Cc1cc(Cl)cc2c1C[C@@H](Nc1ncc3c(n1)CN(C1COC1)C3=O)C2 [Example 16, (S)-6-chloro-2-((6-(oxetan-3-yl)-5-oxo-6,7-dihydro-5H-pyrrolo[3,4-d]pyrimidin-2-yl)amino)-2,3-dihydro-1H-indene-4-carbonitrile]"
18,3 nM,"N#Cc1cc(Cl)cc2c1C[C@@H](Nc1ncc3c(n1)CCN(C1COC1)C3=O)C2 [Example 17, (S)-6-chloro-2-((6-(oxetan-3-yl)-5-oxo-5,6,7,8-tetrahydropyrido[4,3-d]pyrimidin-2-yl)amino)-2,3-dihydro-1H-indene-4-carbonitrile]"
19,3 nM,"N#Cc1cc(Cl)cc2c1C[C@@H](Nc1ncc3c(n1)CN(CC1CC1)C3=O)C2 [Example 18, (S)-6-chloro-2-((6-(cyclopropylmethyl)-5-oxo-6,7-dihydro-5H-pyrrolo[3,4-d]pyrimidin-2-yl)amino)-2,3-dihydro-1H-indene-4-carbonitrile]"
20,5 nM,N#Cc1cc(Cl)cc2c1C[C@@H](Nc1ncc3c(n1)CN([C@H]1C[C@H](O)C1)C3=O)C2 [Example 19]
21,5 nM,"COCCN1Cc2nc(N[C@H]3Cc4cc(Cl)cc(C#N)c4C3)ncc2C1=O [Example 20, (S)-6-chloro-2-((6-(2-methoxyethyl)-5-oxo-6,7-dihydro-5H-pyrrolo[3,4-d]pyrimidin-2-yl)amino)-2,3-dihydro-1H-indene-4-carbonitrile]"
22,5 nM,"CC(C)(O)CN1Cc2nc(N[C@H]3Cc4cc(Cl)cc(C#N)c4C3)ncc2C1=O [Example 21, (S)-6-chloro-2-((6-(2-hydroxy-2-methylpropyl)-5-oxo-6,7-dihydro-5H-pyrrolo[3,4-d]pyrimidin-2-yl)amino)-2,3-dihydro-1H-indene-4-carbonitrile]"
23,2 nM,"N#Cc1cc(Cl)cc2c1C[C@@H](Nc1ncc3c(n1)CN(CCF)C3=O)C2 [Example 22, (S)-6-chloro-2-((6-(2-fluoroethyl)-5-oxo-6,7-dihydro-5H-pyrrolo[3,4-d]pyrimidin-2-yl)amino)-2,3-dihydro-1H-indene-4-carbonitrile]"
24,3 nM,"CN1Cc2nc(N[C@H]3Cc4cc(Cl)cc(C#N)c4C3)ncc2C1=O [Example 23, (S)-6-chloro-2-((6-methyl-5-oxo-6,7-dihydro-5H-pyrrolo[3,4-d]pyrimidin-2-yl)amino)-2,3-dihydro-1H-indene-4-carbonitrile]"
25,9 nM,"N#Cc1cc(Cl)cc2c1C[C@@H](Nc1ncc3c(n1)CN(CC1(O)CC1)C3=O)C2 [Example 24, (S)-6-chloro-2-((6-((1-hydroxycyclopropyl)methyl)-5-oxo-6,7-dihydro-5H-pyrrolo[3,4-d]pyrimidin-2-yl)amino)-2,3-dihydro-1H-indene-4-carbonitrile]"
26,6 nM,"CC(=O)N1CCC(N2Cc3nc(N[C@H]4Cc5cc(Cl)cc(C#N)c5C4)ncc3C2=O)CC1 [Example 25, (S)-2-((6-(1-acetylpiperidin-4-yl)-5-oxo-6,7-dihydro-5H-pyrrolo[3,4-d]pyrimidin-2-yl)amino)-6-chloro-2,3-dihydro-1H-indene-4-carbonitrile]"
